Values quoted from earlier work, collected in PubChem BioAssay AID1259410 (Chemical Carcinogenesis Research Information System (CCRIS), 2018).

Tested on: rodent tumor promotion studies, tumor incidence
Assay: CCRIS tumor promotion studies

## COc1c2occc2cc2ccc(=O)oc12
Carcinogen: 4-(Methylnitrosamino)-1-(3-pyridyl)-1-butanone (NNK), 64091-91-4, Doses [Carcinogen]: Once, 2 mg/0.1 ml saline/mouse on first day, study duration 32 wks, Doses [Carcinogen]: Once, 2 mg/0.1 ml saline/mouse on first day, study duration 32 wks, Doses [Promoter]: 100 ppm in diet from wks 2-16, study duration 32 wks, Route [Carcinogen]: Intraperitoneal, Route [Promoter]: Oral, Species: Mouse, Strain/Sex: A/J/Female
  outcome: lung: adenoma (2.15 vs 1.54, not significant)
Carcinogen: 4-(Methylnitrosamino)-1-(3-pyridyl)-1-butanone (NNK), 64091-91-4, Doses [Carcinogen]: Once, 2 mg/0.1 ml saline/mouse on first day, study duration 32 wks, Doses [Carcinogen]: Once, 2 mg/0.1 ml saline/mouse on first day, study duration 32 wks, Doses [Promoter]: 100 ppm in diet from wks16-32, study duration 32 wks, Route [Carcinogen]: Intraperitoneal, Route [Promoter]: Oral, Species: Mouse, Strain/Sex: A/J/Female
  outcome: lung: adenoma and adenocarcinoma (7.31 vs 6.78, not significant)

## OC[C@H]1O[C@@H]2O[C@H]3[C@H](O)[C@@H](O)[C@@H](O[C@H]4[C@H](O)[C@@H](O)[C@@H](O[C@H]5[C@H](O)[C@@H](O)[C@@H](O[C@H]6[C@H](O)[C@@H](O)[C@@H](O[C@H]7[C@H](O)[C@@H](O)[C@@H](O[C@H]8[C@H](O)[C@@H](O)[C@@H](O[C@H]1[C@H](O)[C@H]2O)O[C@@H]8CO)O[C@@H]7CO)O[C@@H]6CO)O[C@@H]5CO)O[C@@H]4CO)O[C@@H]3CO
Carcinogen: N-ETHYL-N-(2-HYDROXYETHYL)NITROSAMINE, Doses [Carcinogen]: 500, 1000 PPM IN DIET FOR TWO WK, Doses [Promoter]: 450 MG/KG 1/D FOR 7 D AFTER INITIATION FOR 2 WK, Route [Carcinogen]: ORAL, Route [Promoter]: SUBCUTANEOUS, Species: RAT, Strain/Sex: WISTAR/MALE
  outcome: kidney: tubular cell tumor

## Cn1cc[nH]c1=S
Carcinogen: Acrylonitrile, 79-06-1, Doses [Carcinogen]: 2-3 mg/kg in drinking water, study duration 2 mo, Doses [Promoter]: 100 mg/l in drinking water, study duration 2 mo, Route [Carcinogen]: Oral, Route [Promoter]: Oral, Species: Mouse, Strain/Sex: CD1/Female (20,?)/(30/ ?)
  outcome: thyroid; no tumors

## Cc1cccc(Nc2cc(Cl)nc(SCC(=O)O)n2)c1C
Carcinogen: 2-ACETYLAMINOFLUORENE, 53-96-3, Doses [Carcinogen]: 0.02% IN DIET FOR 8 WK, Doses [Promoter]: 0, 0.1% IN DIET FOR 37 WK BEGINNING 2 WK POST CARCINOGEN TREATMENT (STUDY DURATION: 39 WK), Route [Carcinogen]: ORAL, Route [Promoter]: ORAL, Species: RAT, Strain/Sex: F344/MALE
  outcome: liver: adenoma
Carcinogen: DIETHYLNITROSAMINE, 55-18-5, Doses [Carcinogen]: 150 MG/KG BW ONCE, Doses [Promoter]: 0, 0.1% IN DIET FOR 37 WK BEGINNING 2 WK POST CARCINOGEN TREATMENT (STUDY DURATION: 39 WK), Route [Carcinogen]: INTRAPERITONEAL, Route [Promoter]: ORAL, Species: RAT, Strain/Sex: F344/MALE
  outcome: liver: adenoma
Carcinogen: DIETHYLNITROSAMINE, 55-18-5, Doses [Carcinogen]: 150 MG/KG ONCE, Doses [Promoter]: 0.1% IN DIET BEGINNING 2 WK POST CARCINOGEN DOSE AND CONTINUING FOR 54 WK (STUDY DURATION: 56 WK), Route [Carcinogen]: INTRAPERITONEAL, Route [Promoter]: ORAL, Species: RAT, Strain/Sex: F344/MALE
  outcome: liver: hepatocellular carcinoma or neoplastic nodule
Carcinogen: DIETHYLNITROSAMINE, 55-18-5, Doses [Carcinogen]: 150 MG/KG ONCE, Doses [Promoter]: 0.1% IN DIET BEGINNING 2 WK POST CARCINOGEN DOSE FOR 71 WK FOLLOWED BY CONTROL DIET FOR DURATION OF STUDY (STUDY DURATIO, Route [Carcinogen]: INTRAPERITONEAL, Route [Promoter]: ORAL, Species: RAT, Strain/Sex: F344/MALE
  outcome: liver: hepatocellular carcinoma or neoplastic nodule
Carcinogen: DIETHYLNITROSAMINE, 55-18-5, Doses [Carcinogen]: 150 MG/KG ONCE, Doses [Promoter]: 0.1% IN DIET BEGINNING 11 WK POST CARCINOGEN DOSE AND CONTINUING FOR DURATION OF STUDY (STUDY DURATION: 56 WK), Route [Carcinogen]: INTRAPERITONEAL, Route [Promoter]: ORAL, Species: RAT, Strain/Sex: F344/MALE
  outcome: liver: hepatocellular carcinoma or neoplastic nodule

## O=C(O)CN(CC(=O)O)CC(=O)O
Carcinogen: N-BIS(2-HYDROXYPROPYL)NITROSAMINE, 53609-64-6, Doses [Carcinogen]: 0.2% IN DRINKING WATER FOR 2 WK, Doses [Promoter]: 0, 1% IN DIET FOR 30 WK BEGINNING POST CARCINOGEN DOSE (STUDY DURATION: 32 WK), Route [Carcinogen]: ORAL, Route [Promoter]: ORAL, Species: RAT, Strain/Sex: WISTAR/MALE
  outcome: bladder: papilloma
Carcinogen: N-BUTYL-N-(4-HYDROXYBUTYL)NITROSAMINE, 3817-11-6, Doses [Carcinogen]: 500 PPM IN DRINKING WATER FOR 4 WK, Doses [Promoter]: 0, 10000 PPM IN DIET BEGINNING POST CARCINOGEN TREATMENT AND CONTINUING FOR 28 WK (STUDY DURATION: 32 WK), Route [Carcinogen]: ORAL, Route [Promoter]: ORAL, Species: RAT, Strain/Sex: WISTAR/MALE
  outcome: urinary bladder: papilloma, transitional cell carcinoma
Carcinogen: N-BUTYL-N-(4-HYDROXYBUTYL)NITROSAMINE, 3817-11-6, Doses [Carcinogen]: 500 PPM IN DRINKING WATER FOR 4 WK, Doses [Promoter]: 0, 10000 PPM IN DIET FOR 28 WK STARTING POST CARCINOGEN (STUDY DURATION: 32 WK), Route [Carcinogen]: ORAL, Route [Promoter]: ORAL, Species: RAT, Strain/Sex: WISTAR/MALE
  outcome: bladder: papilloma, transitional cell carcinoma, squamous cell carcinoma
Carcinogen: N-ETHYL-N-(2-HYDROXYETHYL)NITROSAMINE, Doses [Carcinogen]: 1000 PPM IN DIET FOR 2 WK, Doses [Promoter]: 500, 10000 PPM IN DIET FOR 30 WK, Route [Carcinogen]: ORAL, Route [Promoter]: ORAL, Species: RAT, Strain/Sex: WISTAR/MALE
  outcome: kidney: tubular cell tumor
Carcinogen: N-ETHYL-N-HYDROXYETHYLNITROSAMINE, 13147-25-6, Doses [Carcinogen]: 0.1% IN DIET FOR 2 WK, Doses [Promoter]: 0, 1% IN DIET BEGINNING POST CARCINOGEN TREATMENT AND CONTINUING FOR 30 WK (STUDY DURATION: 32 WK), Route [Carcinogen]: ORAL, Route [Promoter]: ORAL, Species: RAT, Strain/Sex: F344/MALE
  outcome: kidney: adenoma or carcinoma
Carcinogen: N-ETHYL-N-HYDROXYETHYLNITROSAMINE, 13147-25-6, Doses [Carcinogen]: 1000 PPM IN DIET FOR 2 WK, Doses [Promoter]: 0, 500, 10000 PPM IN DIET FOR 30 WK STARTING POST CARCINOGEN (STUDY DURATION: 32 WK), Doses [Promoter]: 0, 500, 10000 PPM IN DIET FOR 30 WK STARTING POST CARCINOGEN (STUDY DURATION: 32 WK), Route [Carcinogen]: ORAL, Route [Promoter]: ORAL, Species: RAT, Strain/Sex: WISTAR/MALE
  outcome: kidney: tubular cell tumor
Carcinogen: Potassium bromate (7758-01-2), Doses [Carcinogen]: 60, 125, 250 and 500 ppm in drinking water for 13 wk (study duration 52 wk), Doses [Promoter]: 1% in diet for 37 wks starting 2 wk after end of carcinogen administration (study duration 52 wk), Route [Carcinogen]: Oral, Route [Promoter]: Oral, Species: Rat, Strain/Sex: F344 (15/Group)
  outcome: kidney: significant increase in multiplicity of atypical tubules and of incidenc

## C=CCS(=O)(=O)CC=C
Carcinogen: Vinyl carbamate, 15805-73-9, Doses [Carcinogen]: 60 mg/kg once 2 hr after inhibitor (Study duration: 25 wk), Doses [Promoter]: 50 mg/kg once at beginning of experiment (Study duration: 25 wk), Route [Carcinogen]: Intraperitoneal, Route [Promoter]: Oral, Species: Mouse, Strain/Sex: F1 (Big Blue x A/J) (43/?)/47/?)
  outcome: lung: solid tumors (61 (42%), 135 (86.5%), p<0.01)

## Clc1c(Cl)c(Cl)c(Cl)c(Cl)c1Cl
Carcinogen: DIETHYLNITROSAMINE, 55-18-5, Doses [Carcinogen]: 0.015% IN DRINKING WATER FOR 3 WK, Doses [Promoter]: 0, 0.02% IN DIET (10.5 MG/KG/D) FOR 30 WK BEGINNING 2 WK AFTER LAST CARCINOGEN DOSE (STUDY DURATION: 35 WK), Route [Carcinogen]: ORAL, Route [Promoter]: ORAL, Species: RAT, Strain/Sex: F344/MALE
  outcome: liver: hepatocellular carcinoma
Carcinogen: DIETHYLNITROSAMINE, 55-18-5, Doses [Carcinogen]: 0.015% IN DRINKING WATER FOR 3 WK, Doses [Promoter]: 0, 0.02% IN DIET (12 MG/KG/D) FOR 30 WK BEGINNING 2 WK AFTER LAST CARCINOGEN DOSE (STUDY DURATION: 35 WK), Route [Carcinogen]: ORAL, Route [Promoter]: ORAL, Species: RAT, Strain/Sex: F344/FEMALE
  outcome: liver: hepatocellular carcinoma

## CC(=O)Nc1ccc2c(c1)C(=O)c1ccccc1-2
Carcinogen: DIETHYLNITROSAMINE, 55-18-5, Doses [Carcinogen]: 200 MG/KG BW IN 0.9% SALINE ONCE, Doses [Promoter]: 0, 0.1 MMOL/KG BW IN POLYETHYLENE GLYCOL FOR 5 D BEGINNING 1 WK POST CARCINOGEN DOSE, 70% HEPATECTOMY PERFORMED 3 D AFTE, Route [Carcinogen]: INTRAPERITONEAL, Route [Promoter]: GAVAGE, Species: RAT, Strain/Sex: SPRAGUE-DAWLEY/MALE
  outcome: liver: hepatocellular carcinoma
